Measurements published in patent US20050197350A1, “Novel quinoline, tetrahydroquinazoline, and pyrimidine derivatives and methods of treatment related to the use thereof” (TAISHO PHARMACEUTICAL CO., LTD., priority 2003, published 2005).

Test system: MCH receptors
Test: MCH receptor activity class (method not given)
[1] = class by percent of control at 10^-7 M or IC50
[2] = MCH receptor activity class 1-3 (percent of control at 10^-7 M or IC50)
[3] = class 1-3 by percent of control at 10^-7 M or IC50
[4] = activity class per percent of control at 10^-7 M or IC50
[5] = MCH receptor, class by percent of control at 10^-7 M or IC50
[6] = activity class 1-3: percent of control at 10^-7 M or IC50

| SMILES | class [1] | other results |
| --- | --- | --- |
| CN(C)c1nc(N[C@H]2CC[C@@H](CNCc3ccsc3)CC2)nc2c1CCCC2 [compound 1425] | 3 (Class 3 The value of percent of control at 10^−7 M was more than 60% or the value of IC50 was more than 200 nM.) |  |
| Cc1ccc(NC(=O)NC[C@H]2CC[C@@H](Nc3cc(N(C)C)c4ccccc4n3)CC2)cc1 [compound 2395] |  | class [2]: 3 (Class 3 The value of percent of control at 10^−7 M was more than 60% or the value of IC50 was more than 200 nM.) |
| CN(C)c1ccnc(N[C@H]2CC[C@@H](CNC(=O)c3ccc(Cl)s3)CC2)n1 [compound 929] | 3 (Class 3 The value of percent of control at 10^−7 M was more than 60% or the value of IC50 was more than 200 nM.) |  |
| COc1ccc(NC(=O)N[C@H]2CC[C@@H](Nc3nc4c(c(N(C)C)n3)CCCC4)CC2)cc1 [compound 1831] | 3 (Class 3 The value of percent of control at 10^−7 M was more than 60% or the value of IC50 was more than 200 nM.) |  |
| CN(C)c1nc(N[C@H]2CC[C@@H](CNC(=O)C(c3ccccc3)c3ccccc3)CC2)nc2c1CCCC2 [compound 594] |  | class [3]: 3 (Class 3 The value of percent of control at 10^−7 M was more than 60% or the value of IC50 was more than 200 nM.) |
| CN(C)c1ccnc(N[C@H]2CC[C@@H](CNC(=O)Nc3c(Cl)cccc3Cl)CC2)n1 [compound 2445] |  | class [2]: 1 (Class 1: The value of percent of control at 10^−7 M was less than 40% or the value of IC50 was less than 50 nM.) |
| Cc1cc(C)c(C(=O)C(=O)N[C@H]2CC[C@@H](Nc3nc4c(c(N(C)C)n3)CCCC4)CC2)c(C)c1 [compound 1051] |  | class [4]: 3 (Class 3 The value of percent of control at 10^−7 M was more than 60% or the value of IC50 was more than 200 nM.) |
| CN(C)c1ccnc(N[C@H]2CC[C@@H](NCc3c[nH]nc3-c3ccc(C(F)(F)F)cc3)CC2)n1 [compound 1218] | 3 (Class 3 The value of percent of control at 10^−7 M was more than 60% or the value of IC50 was more than 200 nM.) |  |
| COc1cc(NC(=S)N[C@H]2CC[C@@H](Nc3cc(N(C)C)c4ccccc4n3)CC2)c(OC)cc1Cl [compound 2308] |  | class [2]: 3 (Class 3 The value of percent of control at 10^−7 M was more than 60% or the value of IC50 was more than 200 nM.) |
| CN(C)c1cc(N[C@H]2CC[C@@H](NC(=O)C3CCCCC3)CC2)nc2ccccc12 [compound 97] |  | class [5]: 3 (Class 3 The value of percent of control at 10^−7 M was more than 60% or the value of IC50 was more than 200 nM.) |
| CCCCc1ccc(NC(=O)N[C@H]2CC[C@@H](Nc3cc(N(C)C)c4ccccc4n3)CC2)c(C)c1 [compound 2165] | 3 (Class 3 The value of percent of control at 10^−7 M was more than 60% or the value of IC50 was more than 200 nM.) |  |
| CN(C)c1nc(N[C@H]2CC[C@@H](CNC(=O)c3cc(F)cc(C(F)(F)F)c3)CC2)nc2c1CCCC2 [compound 600] |  | class [3]: 3 (Class 3 The value of percent of control at 10^−7 M was more than 60% or the value of IC50 was more than 200 nM.) |
| C[C@H](CN[C@H]1CC[C@@H](Nc2cc(N(C)C)c3ccccc3n2)CC1)c1cccc(C(O)c2ccccc2)c1 (stereo partly shown) [compound 1461] | 3 (Class 3 The value of percent of control at 10^−7 M was more than 60% or the value of IC50 was more than 200 nM.) |  |
| COc1cccc(NC(=O)[C@H]2CC[C@@H](Nc3ncc(C)c(N(C)C)n3)CC2)c1 [compound 2787, cis-4-{[4-(dimethylamino)-5-methylpyrimidin-2-yl]amino}-N-(3-methoxyphenyl)cyclohexanecarboxamide] |  | class (class by percent of control at 10^−7 M or IC50): 1 (Class 1: The value of percent of control at 10^−7 M was less than 40% or the value of IC50 was less than 50 nM.) |
| Cc1ccc(OC(=O)N[C@H]2CC[C@@H](Nc3cc(N(C)C)c4ccccc4n3)CC2)cc1 [compound 1554] |  | class [6]: 3 (Class 3 The value of percent of control at 10^−7 M was more than 60% or the value of IC50 was more than 200 nM.) |
| CCCN(CCC)C(=O)[C@H](CCC(=O)N[C@H]1CC[C@@H](Nc2cc(N(C)C)c3ccccc3n2)CC1)NC(=O)c1ccccc1 (relative stereo) [compound 730] | 3 (Class 3 The value of percent of control at 10^−7 M was more than 60% or the value of IC50 was more than 200 nM.) |  |
| Cc1ccc(C(=O)c2ccccc2C(=O)N[C@H]2CC[C@@H](Nc3nccc(N(C)C)n3)CC2)cc1 [compound 898] | 3 (Class 3 The value of percent of control at 10^−7 M was more than 60% or the value of IC50 was more than 200 nM.) |  |
| CN(C)c1nc(N[C@H]2CC[C@@H](CNCCc3ccc(C(C)(C)C)cc3)CC2)nc2c1CCCC2 [compound 1503] | 3 (Class 3 The value of percent of control at 10^−7 M was more than 60% or the value of IC50 was more than 200 nM.) |  |
| COc1ccccc1NC(=O)N[C@H]1CC[C@@H](Nc2nc3c(c(N(C)C)n2)CCCC3)CC1 [compound 1833] | 3 (Class 3 The value of percent of control at 10^−7 M was more than 60% or the value of IC50 was more than 200 nM.) |  |
| CN(C)c1cc(N[C@H]2CC[C@@H](NC(=O)c3ccc(F)cc3F)CC2)nc2ccccc12 [compound 126, N-(cis-4-{[4-(dimethylamino)quinolin-2-yl]amino}cyclohexyl)-2,4-difluorobenzamide] |  | class [5]: 3 (Class 3 The value of percent of control at 10^−7 M was more than 60% or the value of IC50 was more than 200 nM.) |

| SMILES | class [1] | other results |
| --- | --- | --- |
| CN(C)c1ccnc(N[C@H]2CC[C@@H](CNCc3cn(C)c4ccccc34)CC2)n1 [compound 1300] | 2 (Class 2: The value of percent of control at 10^−7 M was from 40% to 60% or the value of IC′50 was from 50 nM to 200 nM.) |  |
| CN(C)c1ccnc(N[C@H]2CC[C@@H](CNCc3cccc(Br)c3)CC2)n1 [compound 1264] | 3 (Class 3 The value of percent of control at 10^−7 M was more than 60% or the value of IC50 was more than 200 nM.) |  |
| CN(C)c1ccnc(N[C@H]2CC[C@@H](NC(=O)CSc3ccccc3)CC2)n1 [compound 281] | 3 (Class 3 The value of percent of control at 10^−7 M was more than 60% or the value of IC50 was more than 200 nM.) |  |
| Cc1cc(C(=O)N[C@H]2CC[C@@H](Nc3nc4c(c(N(C)C)n3)CCCC4)CC2)c(C)o1 [compound 507] |  | class [3]: 1 (Class 1: The value of percent of control at 10^−7 M was less than 40% or the value of IC50 was less than 50 nM.) |
| COc1ccc(NC(=S)N[C@H]2CC[C@@H](Nc3cc(N(C)C)c4ccccc4n3)CC2)c(C)c1 [compound 2296] |  | class [2]: 3 (Class 3 The value of percent of control at 10^−7 M was more than 60% or the value of IC50 was more than 200 nM.) |
| CCCN(CCC)S(=O)(=O)c1ccc(C(=O)N[C@H]2CC[C@@H](Nc3nccc(N(C)C)n3)CC2)cc1 [compound 356, N-(cis-4-{[4-(dimethylamino)pyrimidin-2-yl]amino}cyclohexyl)-4-[(dipropylamino)sulfonyl]benzamide] | 1 (Class 1: The value of percent of control at 10^−7 M was less than 40% or the value of IC50 was less than 50 nM.) |  |
| CN(C)c1nc(N[C@H]2CC[C@@H](NC(=O)Cc3cccc4ccccc34)CC2)nc2c1CCCC2 [compound 525] |  | class [3]: 3 (Class 3 The value of percent of control at 10^−7 M was more than 60% or the value of IC50 was more than 200 nM.) |
| CN(C)c1ccnc(N[C@H]2CC[C@@H](NC(=O)c3ccc(Br)cc3)CC2)n1 [compound 240] | 3 (Class 3 The value of percent of control at 10^−7 M was more than 60% or the value of IC50 was more than 200 nM.) |  |
| CN(C)c1ccnc(N[C@H]2CC[C@@H](NC(=O)c3ccc(SC(F)(F)F)cc3)CC2)n1 [compound 349] | 3 (Class 3 The value of percent of control at 10^−7 M was more than 60% or the value of IC50 was more than 200 nM.) |  |
| Cc1cc(NC(=O)N[C@H]2CC[C@@H](Nc3nccc(N(C)C)n3)CC2)c(C(F)(F)F)o1 [compound 2212] | 3 (Class 3 The value of percent of control at 10^−7 M was more than 60% or the value of IC50 was more than 200 nM.) |  |
| CCOC(=O)N[C@H]1CC[C@@H](Nc2cc(N(C)C)c3ccccc3n2)CC1 [compound 1547] |  | class [6]: 3 (Class 3 The value of percent of control at 10^−7 M was more than 60% or the value of IC50 was more than 200 nM.) |
| CN(C)c1cc(N[C@H]2CC[C@@H](NC(=O)Nc3ccccc3C(C)(C)C)CC2)nc2ccccc12 [compound 2114] | 3 (Class 3 The value of percent of control at 10^−7 M was more than 60% or the value of IC50 was more than 200 nM.) |  |
| CN(C)c1nc(N[C@H]2CC[C@@H](NC(=O)Nc3ccc4c(c3)Cc3ccccc3-4)CC2)nc2c1CCCC2 [compound 1904] |  | class [5]: 3 (Class 3 The value of percent of control at 10^−7 M was more than 60% or the value of IC50 was more than 200 nM.) |
| CC1=C(CC(=O)N[C@H]2CC[C@@H](Nc3nc4c(c(N(C)C)n3)CCCC4)CC2)c2cc(F)ccc2/C1=C/c1ccc([S+](C)[O-])cc1 (relative stereo) [compound 1019] |  | class [4]: 1 (Class 1: The value of percent of control at 10^−7 M was less than 40% or the value of IC50 was less than 50 nM.) |
| CCSc1ncccc1C(=O)NC[C@H]1CC[C@@H](Nc2cc(N(C)C)c3ccccc3n2)CC1 [compound 163] |  | class [5]: 3 (Class 3 The value of percent of control at 10^−7 M was more than 60% or the value of IC50 was more than 200 nM.) |
| CN(C)c1ccnc(N[C@H]2CC[C@@H](NC(=O)Nc3c(Cl)c(Cl)cc(Cl)c3Cl)CC2)n1 [compound 2228] | 3 (Class 3 The value of percent of control at 10^−7 M was more than 60% or the value of IC50 was more than 200 nM.) |  |
| CN(C)c1cc(N[C@H]2CC[C@@H](NC(=O)c3cc(Cl)sc3Cl)CC2)nc2ccccc12 [compound 83] |  | class [5]: 2 (Class 2: The value of percent of control at 10^−7 M was from 40% to 60% or the value of IC′50 was from 50 nM to 200 nM.) |
| CN(C)c1nc(N[C@H]2CC[C@@H](NC(=S)Nc3ccc(Cl)cc3C(F)(F)F)CC2)nc2c1CCCC2 [Example 1774] | 2 (Class 2: The value of percent of control at 10^−7 M was from 40% to 60% or the value of IC′50 was from 50 nM to 200 nM.) |  |
| COc1cccc(CC(=O)N[C@H]2CC[C@@H](Nc3nccc(N(C)C)n3)CC2)c1 [compound 285] | 3 (Class 3 The value of percent of control at 10^−7 M was more than 60% or the value of IC50 was more than 200 nM.) |  |
| CN(C)c1nc(N[C@H]2CC[C@@H](NC(=O)Nc3ccccc3[N+](=O)[O-])CC2)nc2c1CCCC2 [compound 1717] | 3 (Class 3 The value of percent of control at 10^−7 M was more than 60% or the value of IC50 was more than 200 nM.) |  |
